# Values quoted from earlier work in patent US9192596B2, “Self-emulsifying pharmaceutical compositions of rhein or diacerein” (WOCKHARDT RESEARCH CENTRE, priority 2007, dated 2015).
# Structures can show the parent of a compound that is named as a salt.
# Columns and labels:
# [1] = inherent pharmacokinetic property; rhein-glucuronide converted to rhein-9-anthrone in colon
# [2] = not given; remark: listed apart in the source
smiles,measurement,setting,value
"CC(=O)Oc1cccc2c1C(=O)c1c(OC(C)=O)cc(C(=O)O)cc1C2=O [diacerein, 4,5-bis(acetyloxy) 9,10-dihydro-4,5-dihydroxy-9,10-dioxo-2-anthracenecarboxylic acid]",soft stool effect expected due to enterohepatic circulation,[1],30-40%
same,solubility,"water, alcohols, acetone, dichloromethane and chloroform",practically insoluble
same,pKa,[2],4.5
same,stability,[2]; acidic and alkaline conditions,instability under acidic and alkaline conditions
CC(=O)Oc1cccc2c1C(=O)c1c(OC(C)=O)cc(C(=O)O)cc1C2=O [potassium salt of diacerein],solubility in water,"EP 243,968",water-soluble
